According to EP1849775A1, “Cycloalkane-substituted pyrazoline compounds, their preparation and use as medicaments” (LABORATORIOS DEL DR. ESTEVE, S.A., priority 2006, dated 2007):

Columns and labels:
CB1-Receptor = molecular target: T1, CB1-Receptor (Homo sapiens, UniProt P21554); test: In-vitro determination of affinity to CB1 receptor (radioligand binding); details: Radiologand:[^3H]-CP55940, transfected human CB1 receptors
T1 construct: purchased Receptor Biology, Inc
Description: I. In-vitro determination of affinity to CB1/CB2-Receptors
The in-vitro determination of the affinity of the inventive quaternary ammonium salts of substituted pyrazoline compounds to CB1/CB2-Rezeptors is carried out as described in the publication of Ruth A. Ross, Heather C. Brockie et al., "Agonist-inverse agonist characterization at CB1 and CB2 cannabinoid receptors of L-759633, L759656 and AM630", British Journal of Pharmacology, 126, 665-672, (1999), whereby the transfected human CB1 and CB2 receptors of Receptor Biology, Inc. are used. The radioligand used for both receptors is [3H]-CP55940. The respective parts of the description are hereby incorporated by reference and forms part of the present disclosure.
The affinity of the inventive substituted pyrazoline compounds to CB1/CB2 receptors was determined as described above.

cannabinoid receptors = test: Mouse tetrad model, antagonistic activity against Win 55212-2; format: in vivo; details: Male NMRI mice; substance injected intravenously 5 minutes before intravenous 1.25 mg/kg Win-55,212; tetrad parameter not specified
Description: II. In-vivo bioassay system for determination of cannabinoid activity
Substances with affinity for cannabinoid receptors are known to produce a wide range of pharmacological effects. It is also known that intravenous administration of a substance with affinity for cannabinoid receptors in mice produces analgesia , hypothermia, sedation and catalepsy. Individually, none of these effects can be considered as proof that a tested substance has affinity for cannabinoid-receptors, since all of these effects are common for various classes of centrally active agents. However, substances, which show all of these effects, i.e. substances that are active in this so-called tetrad model are considered to have affinity for the cannabinoid receptors. It has further been shown that cannabinoid receptor antagonists are higly effective in blocking the effects of a cannabinoid agonist in the mouse tetrad model.
The tetrad model is described, for example, in the publication of A. C. Howlett et al, International Union of Pharmacology XXVII. […]
Before testing in the behavioral procedures given below, mice are acclimatized to the experimental setting. Pre-Treatment control values are determined for analgesia hot plate latency (in seconds), rectal temperature, sedation and catalepsy.
In order to determine the agonistic activty of the substance to be tested, the mice are injected intravenously with the substance to be tested or the vehicle alone. 15 minutes after injection, latency in hot plate analgesia is measured. Rectal temperature, sedation and catalepsy are measured 20 minutes after injection.
In order to determine the antagonistic activity the identical procedure is used as for the determination of the agonistic effects, but with the difference that the substance to be evaluated for its antagonistic activity is injectected 5 minutes before the intravenous injection of 1.25 mg/kg Win-55,212 a known cannabinoid-receptor agonist. […]
The degree of analgesia is calculated from the formula: %MPE of Analgesia = (PT-B)/(PC-B) × 100 [formula] […]

T1 sequence (P21554 whole entry): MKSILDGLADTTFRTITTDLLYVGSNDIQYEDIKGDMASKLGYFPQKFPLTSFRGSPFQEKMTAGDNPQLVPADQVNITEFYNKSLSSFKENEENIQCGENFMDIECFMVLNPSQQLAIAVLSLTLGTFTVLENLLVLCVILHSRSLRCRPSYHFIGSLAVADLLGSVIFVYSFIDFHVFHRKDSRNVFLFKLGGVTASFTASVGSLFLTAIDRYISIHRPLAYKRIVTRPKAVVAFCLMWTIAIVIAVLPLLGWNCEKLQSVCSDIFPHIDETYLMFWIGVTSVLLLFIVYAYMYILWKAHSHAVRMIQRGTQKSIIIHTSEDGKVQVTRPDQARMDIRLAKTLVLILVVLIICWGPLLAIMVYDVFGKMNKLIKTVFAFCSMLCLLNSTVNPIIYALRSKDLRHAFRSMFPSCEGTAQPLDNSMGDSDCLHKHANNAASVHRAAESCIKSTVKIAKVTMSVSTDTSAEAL

IC50 (CB1-Receptor) [nM]	SMILES	Antagonistic Effect in (%) (cannabinoid receptors)
100	O=C(NC1CCCCCC1)C1=NN(c2ccc(Cl)cc2Cl)C(c2ccc(Cl)cc2)C1 (stereo not drawn) [Example 1, 5-(4-chlorophenyl)-N-cycloheptyl-1-(2,4-dichlorophenyl)-4,5-dihydro-1H-pyrazole-3-carboxamide]	84
15.8	O=C(NC1CCCCCC1)C1=NN(c2ccc(Cl)cc2Cl)[C@@H](c2ccc(Cl)cc2)C1 [Example 2, (R)-5-(4-chlorophenyl)-N-cycloheptyl-1-(2,4-dichlorophenyl)-4,5-dihydro-1H-pyrazole-3-carboxamide]	94
56.2	O=C(NC1CCCCCCC1)C1=NN(c2ccc(Cl)cc2Cl)C(c2ccc(Cl)cc2)C1 (stereo not drawn) [Example 5, 5-(4-chlorophenyl)-N-cyclooctyl-1-(2,4-dichlorophenyl)-4,5-dihydro-1H-pyrazole-3-carboxamide]	62±5
